Molecular target: T1, sodium-proton exchanger of subtype 3 (NHE3) (Homo sapiens, UniProt P48764)
T1 construct: expressed in transfected cells
T1 sequence (P48764 26-834): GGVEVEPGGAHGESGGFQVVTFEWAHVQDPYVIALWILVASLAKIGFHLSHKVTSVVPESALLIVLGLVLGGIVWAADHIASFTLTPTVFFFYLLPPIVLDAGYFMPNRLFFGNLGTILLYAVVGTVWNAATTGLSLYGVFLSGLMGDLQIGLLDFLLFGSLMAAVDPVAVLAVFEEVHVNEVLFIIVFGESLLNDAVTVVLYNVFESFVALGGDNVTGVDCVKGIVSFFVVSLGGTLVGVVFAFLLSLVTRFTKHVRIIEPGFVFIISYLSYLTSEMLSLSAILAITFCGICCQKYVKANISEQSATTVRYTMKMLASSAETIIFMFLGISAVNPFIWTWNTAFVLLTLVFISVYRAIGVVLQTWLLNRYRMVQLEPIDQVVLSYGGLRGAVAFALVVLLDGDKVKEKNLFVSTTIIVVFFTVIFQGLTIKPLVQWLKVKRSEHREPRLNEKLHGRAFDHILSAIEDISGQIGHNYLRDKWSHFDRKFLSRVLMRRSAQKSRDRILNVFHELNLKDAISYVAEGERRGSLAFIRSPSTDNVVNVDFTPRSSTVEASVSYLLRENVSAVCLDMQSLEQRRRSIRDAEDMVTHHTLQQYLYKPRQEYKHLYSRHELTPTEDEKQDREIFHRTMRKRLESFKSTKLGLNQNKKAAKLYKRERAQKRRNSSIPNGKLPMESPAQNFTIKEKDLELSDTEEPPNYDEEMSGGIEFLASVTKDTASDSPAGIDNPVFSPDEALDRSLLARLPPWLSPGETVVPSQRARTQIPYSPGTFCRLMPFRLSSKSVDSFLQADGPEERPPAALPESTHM
Assay: Recovery of intracellular pH (pHi) after acidification in LAP1 cells stably expressing NHE3 (BCECF fluorescence, FLIPR)
Assay type: cell-based
Conditions: LAP1 cells stably expressing NHE3; pH recovery after acidification; range 1 is % inhibition at 10 μM; read-out: Activity range (inhibitory effect on NHE3)

SMILES: Cc1nnc(C)n1-c1ccc(O[C@H]2c3cc(Cl)cc(Cl)c3C[C@@H]2N2CC[C@@H](O)C2)c(F)c1F [Example 126, (R)-1-{trans-(1S,2S)-4,6-dichloro-1-[4-(3,5-dimethyl-[1,2,4]triazol-4-yl)-2,3-difluorophenoxy]indan-2-yl}pyrrolidin-3-ol]
- IC50: < 1 µM

SMILES: CS(=O)(=O)c1ccc(O[C@H]2c3ccccc3CC[C@@H]2N2CCC[C@@H](N)C2)cc1 (racemic) [Example 73, (R)-1-[rac-trans-(1,2)-1-(4-methanesulfonylphenoxy)-1,2,3,4-tetrahydronaphthalen-2-yl]piperidin-3-ylamine]
- IC50: < 1 µM

SMILES: COc1cc(O[C@H]2c3ccccc3CC[C@@H]2N2CCC[C@H](N)C2)ccc1Br (racemic) [Example 173, (S)-1-[rac-trans-(1,2)-1-(4-bromo-3-methoxyphenoxy)-1,2,3,4-tetrahydronaphthalen-2-yl]piperidin-3-ylamine]
- inhibition at 10 µM: 20 to 50%

SMILES: CC(=O)Nc1cccc(O[C@H]2c3ccccc3C[C@@H]2N2CCC[C@@H](NCCC(F)(F)F)C2)c1 [Example 632, N-(3-{trans-(1S,2S)-2-[(R)-3-(3,3,3-trifluoropropylamino)piperidin-1-yl]indan-1-yloxy}-phenyl)acetamide]
- IC50: < 1 µM

SMILES: CS(=O)(=O)c1ccc(O[C@H]2c3cc(Cl)cc(Cl)c3C[C@@H]2N2CC[C@H](N)C2)cc1 [Example 199, (S)-1-[trans-(1S,2S)-4,6-dichloro-1-(4-methanesulfonylphenoxy)indan-2-yl]pyrrolidin-3-ylamine]
- IC50: < 1 µM

SMILES: Nc1cccc(O[C@@H]2c3ccccc3C[C@H]2N2CCCC2)c1 (racemic) [Example 401, 3-(rac-trans-(1,2)-2-pyrrolidin-1-ylindan-1-yloxy)phenylamine]
- IC50: 1 to 10 µM

SMILES: CS(=O)(=O)c1ccc(O[C@H]2c3cc(Cl)ccc3C[C@@H]2N2CC[C@@H](O)C2)c(Cl)c1 [Example 107, (R)-1-[trans-(1S,2S)-6-chloro-1-(2-chloro-4-methanesulfonylphenoxy)indan-2-yl]pyrrolidin-3-ol]
- IC50: 1 to 10 µM

SMILES: N[C@H]1CCCN([C@H]2CCc3ccccc3[C@@H]2Oc2cccc3ncccc23)C1 (racemic) [Example 193, (S)-1-[rac-trans-(1,2)-1-(quinolin-5-yloxy)-1,2,3,4-tetrahydronaphthalen-2-yl]piperidin-3-ylamine]
- IC50: 1 to 10 µM

SMILES: NS(=O)(=O)c1ccc(O[C@@H]2c3ccccc3C[C@H]2NC2CCCCCC2)c(F)c1 (racemic) [Example 713, 4-(rac-trans-(1,2)-2-Cycloheptylamino-indan-1-yloxy)-3-fluoro-benzenesulfonamide]
- IC50: 1 to 10 µM

SMILES: CS(=O)(=O)c1ccc(O[C@H]2c3cc(Cl)cc(Cl)c3C[C@@H]2N2CCCN(CCO)CC2)cc1 [Example 385, 2-{4-[trans-(1S,2S)-4,6-dichloro-1-(4-methanesulfonylphenoxy)indan-2-yl]-[1,4]diazepan-1-yl}-ethanol]
- IC50: < 1 µM

SMILES: CC(=O)Nc1cccc(O[C@H]2c3cc(Cl)cc(Cl)c3C[C@@H]2N2CC[C@@H](O)C2)c1 [Example 696, N-{3-[trans-(1S,2S)-4,6-dichloro-2-((R)-3-hydroxypyrrolidin-1-yl)indan-1-yloxy]phenyl}acetamide]
- IC50: < 1 µM

SMILES: O=c1oc2ccc(O[C@@H]3c4ccccc4C[C@H]3N3C[C@H]4CNC[C@H]4C3)cc2s1 (racemic) [Example 577, 5-[rac-trans-(1,2)-2-(hexahydropyrrolo[3,4-c]pyrrol-2-yl)indan-1-yloxy]benzo[1,3]oxathiol-2-one]
- IC50: 1 to 10 µM

SMILES: CCN(CC)[C@@H]1Cc2ccccc2[C@H]1Oc1ccc(S(N)(=O)=O)c(Cl)c1Cl (racemic) [Example 355, 2,3-dichloro-4-(rac-trans-(1,2)-2-diethylaminoindan-1-yloxy)benzenesulfonamide]
- IC50: 1 to 10 µM

SMILES: Cn1ccn(-c2cccc(O[C@H]3c4ccccc4C[C@@H]3N3CCCC3)c2)c1=O (racemic) [Example 352, 1-methyl-3-[3-(rac-trans-(1,2)-2-pyrrolidin-1-ylindan-1-yloxy)phenyl]-1,3-dihydroimidazol-2-one]
- IC50: < 1 µM

SMILES: Cc1ccc(F)c(O[C@H]2c3ccccc3CC[C@@H]2N2CCC[C@@H](N)C2)c1 (racemic) [Example 43, (R)-1-[rac-trans-(1,2)-1-(2-fluoro-5-methylphenoxy)-1,2,3,4-tetrahydronaphthalen-2-yl]piperidin-3-ylamine]
- inhibition at 10 µM: 20 to 50%

SMILES: CS(=O)(=O)c1ccc(O[C@H]2c3cc(Cl)cc(Cl)c3C[C@@H]2N2CCC[C@@H](N)C2)cc1 [Example 102, (R)-1-[trans-(1S,2S)-4,6-dichloro-1-(4-methanesulfonylphenoxy)indan-2-yl]piperidin-3-ylamine]
- IC50: < 1 µM

SMILES: N[C@@H]1CCCN([C@H]2CCc3ccccc3[C@@H]2Oc2cccc(-n3cnnn3)c2)C1 (racemic) [Example 60, (R)-1-[rac-trans-(1,2)-1-(3-tetrazol-1-ylphenoxy)-1,2,3,4-tetrahydronaphthalen-2-yl]piperidin-3-ylamine]
- IC50: 1 to 10 µM

SMILES: NC1CCN([C@@H]2Cc3ccccc3[C@H]2Oc2ccc3cc[nH]c3c2)C1 (mixture of isomers) [Example 262, 1-[rac-trans-(1,2)-1-(1H-indol-6-yloxy)indan-2-yl]pyrrolidin-3-ylamine]
- IC50: 1 to 10 µM

SMILES: O=C1COC(=O)N1c1ccc(F)c(O[C@H]2c3cc(Cl)cc(Cl)c3C[C@@H]2N2CC[C@@H](O)C2)c1 [Example 418, 3-{3-[(1S,2S)-4,6-dichloro-2-((R)-3-hydroxypyrrolidin-1-yl)indan-1-yloxy]-4-fluorophenyl}oxazolidine-2,4-dione]
- IC50: 1 to 10 µM

SMILES: CN(C)CCCN(C)[C@H]1Cc2c(Cl)cc(Cl)cc2[C@@H]1Oc1ccc(S(C)(=O)=O)cc1 [Example 672, N-[trans-(1S,2S)-4,6-dichloro-1-(4-methanesulfonylphenoxy)indan-2-yl]-N,N′,N′-trimethylpropane-1,3-diamine]
- IC50: < 1 µM

SMILES: COCCN1CCCN([C@H]2Cc3c(Cl)cc(Cl)cc3[C@@H]2Oc2ccc(-c3c(C)noc3C)cc2)CC1 [Example 350, 1-{trans-(1S,2S)-4,6-dichloro-1-[4-(3,5-dimethylisoxazol-4-yl)phenoxy]indan-2-yl}-4-(2-methoxyethyl)-[1,4]diazepane]
- IC50: 1 to 10 µM

SMILES: COc1cccc(F)c1O[C@@H]1c2cc(Cl)cc(Cl)c2C[C@H]1N1CCC[C@@H](N)C1 [Example 94, (R)-1-[trans-(1R,2R)-4,6-dichloro-1-(2-fluoro-6-methoxyphenoxy)indan-2-yl]piperidin-3-ylamine]
- inhibition at 10 µM: 20 to 50%

SMILES: N#Cc1cc(Cl)ccc1O[C@H]1c2ccccc2CC[C@@H]1N1CCC[C@H](N)C1 (racemic) [Example 371, 2-[rac-trans-(1,2)-2-((S)-3-aminopiperidin-1-yl)-1,2,3,4-tetrahydronaphthalen-1-yloxy]-5-chlorobenzonitrile]
- inhibition at 10 µM: 20 to 50%

SMILES: CCn1c(C)nn(-c2ccc(O[C@H]3c4cc(Cl)cc(Cl)c4C[C@@H]3N3CC[C@@H](O)C3)cc2)c1=O [Example 737, 2-{4-[trans-(1S,2S)-4,6-Dichloro-2-((R)-3-hydroxy-pyrrolidin-1-yl)-indan-1-yloxy]-phenyl}-4-ethyl-5-methyl-2,4-dihydro-[1,2,4]triazol-3-one]
- IC50: 1 to 10 µM

SMILES: Cc1nnc(C)n1-c1ccc(O[C@H]2c3cc(Cl)cc(Cl)c3C[C@@H]2N2CCCNCC2)cc1 [Example 347, 1-{trans-(1S,2S)-4,6-dichloro-1-[4-(3,5-dimethyl-[1,2,4]triazol-4-yl)phenoxy]indan-2-yl}-[1,4]diazepane]
- IC50: < 1 µM

SMILES: CCN(CC)[C@@H]1Cc2ccccc2[C@H]1Oc1ccc2sc(C)nc2c1 (racemic) [Example 625, Diethyl-[rac-trans-(1,2)-1-(2-methylbenzothiazol-5-yloxy)indan-2-yl]amine]
- IC50: 1 to 10 µM

SMILES: N[C@H]1CCCN([C@@H]2Cc3ccccc3[C@H]2Oc2ccc(-n3ccnc3)cc2)C1 (racemic) [Example 181, (S)-1-[rac-trans-(1,2)-1-(4-imidazol-1-ylphenoxy)indan-2-yl]piperidin-3-ylamine]
- IC50: 1 to 10 µM

SMILES: N#Cc1ccc(O[C@@H]2c3ccccc3C[C@H]2N2CCC(CN)CC2)c(Cl)c1 (racemic) [Example 547, 4-[rac-trans-(1,2)-2-(4-aminomethylpiperidin-1-yl)indan-1-yloxy]-3-chlorobenzonitrile]
- IC50: 1 to 10 µM

SMILES: CN1C[C@@H]2CN([C@H]3Cc4c(Cl)cc(Cl)cc4[C@@H]3Oc3ccc(S(C)(=O)=O)cc3)C[C@@H]2C1 [Example 8, 2-[trans-(1S,2S)-4,6-dichloro-1-(4-methanesulfonylphenoxy)indan-2-yl]-5-methyloctahydropyrrolo[3,4-c]pyrrole]
- IC50: < 1 µM

SMILES: CS(=O)(=O)c1ccc(O[C@H]2c3cc(Cl)cc(Cl)c3C[C@@H]2N2CCCN(CCO)CC2)cc1 (racemic) [Example 383, 2-{4-[rac-trans-(1,2)-4,6-dichloro-1-(4-methanesulfonylphenoxy)indan-2-yl]-[1,4]diazepan-1-yl}-ethanol]
- IC50: < 1 µM
